Literature values in US8278451B2, “Pseudoazulenyl nitrones” (The Florida International University Board of Trustees, priority 2006, dated 2012).

How the values were obtained:
[1] = test system: age-related changes in cognitive performance; conditions: aged rats, chronic treatment
[2] = aqueous solution at pH 7 and 20° C.
[3] = test system: lifespan; conditions: aged animal model, daily intraperitoneal injection, male and female
[4] = test system: human diploid fibroblast cells; conditions: human diploid fibroblast cells in culture
[5] = test system: LPS-induced organ dysfunction and cytokine secretion; conditions: rats, LPS administered

Row | SMILES | age-related changes in cognitive performance [1] | one-electron oxidative potential (vs. NHE) [2] | lifespan [3] | onset of senescence [4] | LPS-induced leukopenia [5] | LPS-induced pulmonary edema [5] | LPS-induced thrombocytopenia [5] | organ dysfunction and cytokine secretion induced by LPS [5]
1 | Cc1c(C)c2c(c(C)c1O)CC[C@@](C)(CCC[C@H](C)CCC[C@H](C)CCCC(C)C)O2 [vitamin E, alpha-tocopherol] | benefit (i.e., improve) age-related changes in cognitive performance | 0.48 V |  |  |  |  |  | 
2 | CC(C)(C)[N+]([O-])=Cc1ccccc1 [PBN, alpha-phenyl-N-tert-butylnitrone] | benefit (i.e., improve) age-related changes in cognitive performance |  | remarkable extension of the lifespan | effectively delayed the onset of senescence |  |  |  | 
3 | CC1(C)Cc2ccccc2C=[N+]1[O-] [MDL 101,002] |  |  |  |  | failed to prevent leukopenia | prevented pulmonary edema | partially reduced thrombocytopenia | reduces organ dysfunction and cytokine secretion
